# Measured values taken from the supplement of paper PMC10307832.
# How the values were obtained:
# Assay in all cases: relative viability (nuclei count vs DMSO), 5 days (fraction); higher = more cells survive
# Avagacestat + Pemetrexed = compound: NC(=O)[C@@H](CCC(F)(F)F)N(Cc1ccc(-c2ncon2)cc1F)S(=O)(=O)c1ccc(Cl)cc1 [Avagacestat] + Nc1nc2[nH]cc(CCc3ccc(C(=O)N[C@@H](CCC(=O)O)C(=O)O)cc3)c2c(=O)[nH]1 [Pemetrexed] (partner 0.2 µM)
# How it was run: (§1)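 Relative viability equals treated-well nuclei counts divided by vehicle-well nuclei counts. Counts came from 4× images of lung cancer cell lines grown in 1536-well plates for 5 days after pin-tool dosing on the day after seeding. Dosing used one drug alone or a fixed anchor-drug dose plus five library-drug doses (not always all listed) in √10 steps, and values are medians of duplicate plates.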
# Avagacestat + Olaparib = compound: NC(=O)[C@@H](CCC(F)(F)F)N(Cc1ccc(-c2ncon2)cc1F)S(=O)(=O)c1ccc(Cl)cc1 [Avagacestat] + O=C(c1cc(Cc2n[nH]c(=O)c3ccccc23)ccc1F)N1CCN(C(=O)C2CC2)CC1 [Olaparib] (partner 8 µM)
# How it was run: as §1
# Avagacestat + Bortezomib = compound: NC(=O)[C@@H](CCC(F)(F)F)N(Cc1ccc(-c2ncon2)cc1F)S(=O)(=O)c1ccc(Cl)cc1 [Avagacestat] + CC(C)C[C@H](NC(=O)[C@H](Cc1ccccc1)NC(=O)c1cnccn1)B(O)O [Bortezomib] (partner 0.002 µM)
# How it was run: as §1
# Avagacestat + Alpelisib = compound: NC(=O)[C@@H](CCC(F)(F)F)N(Cc1ccc(-c2ncon2)cc1F)S(=O)(=O)c1ccc(Cl)cc1 [Avagacestat] + Cc1nc(NC(=O)N2CCC[C@H]2C(N)=O)sc1-c1ccnc(C(C)(C)C(F)(F)F)c1 [Alpelisib] (partner 2 µM)
# How it was run: as §1
Cell Line,relative viability (Avagacestat + Pemetrexed; first compound 0.08 µM),relative viability (Avagacestat + Pemetrexed; first compound 0.253 µM),relative viability (Avagacestat + Pemetrexed; first compound 0.8 µM),relative viability (Avagacestat + Pemetrexed; first compound 2.53 µM),relative viability (Avagacestat + Pemetrexed; first compound 8 µM),relative viability (Avagacestat + Olaparib; first compound 0.08 µM),relative viability (Avagacestat + Olaparib; first compound 0.253 µM),relative viability (Avagacestat + Olaparib; first compound 0.8 µM),relative viability (Avagacestat + Olaparib; first compound 2.53 µM),relative viability (Avagacestat + Olaparib; first compound 8 µM),relative viability (Avagacestat + Bortezomib; first compound 0.08 µM),relative viability (Avagacestat + Bortezomib; first compound 0.253 µM),relative viability (Avagacestat + Bortezomib; first compound 0.8 µM),relative viability (Avagacestat + Bortezomib; first compound 2.53 µM),relative viability (Avagacestat + Bortezomib; first compound 8 µM),relative viability (Avagacestat + Alpelisib; first compound 0.08 µM),relative viability (Avagacestat + Alpelisib; first compound 0.253 µM),relative viability (Avagacestat + Alpelisib; first compound 0.8 µM),relative viability (Avagacestat + Alpelisib; first compound 2.53 µM),relative viability (Avagacestat + Alpelisib; first compound 8 µM)
HOP-62,0.344,0.359,0.329,0.312,0.29,0.411,0.502,0.211,0.564,0.371,0.783,0.819,0.727,0.513,0.709,1,0.908,0.971,0.94,0.889
LC-2-ad,0.286,0.276,0.264,0.263,0.273,0.853,0.794,0.826,0.783,0.679,1.16,1.12,1.04,0.934,0.941,0.798,0.707,0.769,0.81,0.788
LCLC-97TM1,0.177,0.177,0.159,0.166,0.146,0.533,0.463,0.555,0.309,0.307,0.98,0.625,1.38,0.786,0.482,0.265,0.224,0.185,0.186,0.218
LCLC-103H,0.448,0.412,0.433,0.456,0.486,0.809,0.617,0.845,0.745,0.766,1.01,1.07,1.03,1.07,1.04,0.983,0.939,1.01,0.842,0.753
LOU-NH91,0.389,0.344,0.431,0.427,0.336,0.964,0.983,0.966,0.914,0.926,0.541,0.509,0.51,0.478,0.485,0.712,0.724,0.779,0.608,0.738
LU99A,0.25,0.232,0.182,0.226,0.155,0.254,0.259,0.269,0.265,0.243,1.28,1.13,0.938,1.1,1.19,0.659,0.498,0.529,0.51,0.483
LXF-289,0.986,0.947,0.936,0.905,0.799,1.41,1.41,1.15,1.08,1.04,1.04,1.1,0.972,0.99,0.911,1.08,1.15,1.04,1.1,0.949
NCI-H23,0.966,0.863,0.905,0.801,0.31,0.302,0.316,0.315,0.335,0.296,1.19,1.42,1.12,1,0.822,0.912,0.766,0.768,0.683,0.688
NCI-H322M,0.621,0.619,0.632,0.608,0.569,0.827,0.774,0.783,0.685,0.668,1.27,1.23,1.4,1.05,1.17,0.762,0.787,0.904,0.633,0.54
NCI-H441,0.269,0.252,0.272,0.271,0.298,0.679,0.592,0.656,0.803,0.613,0.66,0.925,0.531,0.485,0.248,0.92,0.761,1.05,0.973,0.986
NCI-H460,0.0657,0.0554,0.0635,0.0567,0.0624,0.549,0.565,0.532,0.385,0.36,–,–,1.36,1.18,1.15,0.724,0.538,0.688,0.472,0.357
NCI-H520,0.792,0.801,0.844,0.703,0.559,0.337,0.367,0.335,0.338,0.251,0.728,0.555,0.679,0.48,0.334,1.16,0.868,0.74,0.7,0.715
NCI-H596,0.594,0.56,0.578,0.528,0.503,0.741,0.62,0.804,0.613,0.573,0.956,1.13,1.13,1.14,0.823,0.584,0.482,0.479,0.466,0.491
NCI-H647,0.171,0.171,0.186,0.149,0.15,0.766,0.663,0.626,0.508,0.366,1.66,1.15,1.14,1.06,0.922,1.46,0.994,1.3,0.959,0.884
NCI-H650,1.05,1.04,1.04,0.944,0.868,0.399,0.524,0.403,0.427,0.412,1.08,0.948,1.16,1.03,0.735,1.12,1.57,1.21,1.32,1.19
NCI-H1563,0.811,0.664,0.82,0.711,0.683,–,–,–,–,–,0.917,0.821,0.898,0.792,0.835,0.925,0.989,0.937,0.934,0.8
